Patent US20130224761A1, “NON COVALENT MOLECULAR STRUCTURE, COMPRISING A PORPHYRIN BASED GLYCOCONJUGATE, DEVICE COMPRISING THE SAME AND ITS USE FOR DETECTION OF LECTIN” (CENTRE NATIONAL DE LA RECHERCHE SCIENTIFIQUE (CNRS), priority 2011, published 2013)

Key:
ConA lectin [1] = experiment: CCG-FET electronic detection of glycoconjugate-lectin interaction (G vs Vg); type: binding, Canavalia ensiformis; conditions: CCG-FET functionalized with glycoconjugate; 2 μM lectin, 5 μM Ca2+, PBS
Procedure: (§1) FIG. 6 illustrates the electronic detection of carbohydrate-lectin interactions.
(§2) For each glycoconjugate functionalized device, non-specific lectins were tested first, followed by washing procedures and measuring of specific lectin. The final transfer characteristics were tested again in the configuration mentioned above.

PA-IIL lectin = conditions: SWNT-FET functionalized with glycoconjugate; 5 μM lectin per FIG. 5 legend (1 μM elsewhere in the source), 5 μM Ca2+, PBS pH 7
Procedure: (§3) Lectin attachment was performed in the presence of 5 μM Ca^2+.
(§4) The electrical performance of each such obtained “SWNT-FET” device was investigated in electrolyte gated FET device configuration. […] A small fluid (1 mL) chamber was placed over the SWNT-FET device to control the liquid environment using phosphate buffer solution (PBS) at pH 7. A liquid gate potential (−0.75V to 0.75 V) with respect to the grounded drain electrode was applied using Ag/AgCl (3 M KCl) reference electrode submerged in the electrolyte. The drain current of the device was measured at a constant source-drain voltage of 50 mV.
Surface functionalization of SWNT FET device with each porphyrin based glycoconjugate respectively named “5a”, “5b” and “5c” was performed by incubating them in their 5 μM solution in deionized water for 2 hours followed by rinsing with deionized water. This step was followed by incubating the chips for 30 minutes in different concentrations of lectin solutions prepared in PBS with 5 μM CaCl2 and latter rinsing with PBS solution.

PA-IL lectin [2] = molecular target: T1, PA-IL lectin (Pseudomonas aeruginosa, UniProt Q05097); experiment: CCG-FET electronic detection of glycoconjugate-lectin interaction (G vs Vg); type: binding; conditions: CCG-FET functionalized with glycoconjugate; 2 μM lectin, 5 μM Ca2+, PBS
T1 construct: made in house; host or cells: Escherichia coli
Procedure: as §1, §2

ConA lectin [3] = experiment: SWNT-FET electronic detection of glycoconjugate-lectin interaction (G vs Vg); type: binding, Canavalia ensiformis; conditions: SWNT-FET functionalized with glycoconjugate; 5 μM lectin, 5 μM Ca2+, PBS pH 7
From the text: ConA (25 kDa) is a plant lectin from Canavalia ensiformis that is specific for α-D-mannose and is available commercially from Sigma and used without further purification.

ConA lectin [4] = experiment: AFM imaging of SWNT functionalized with glycoconjugate before and after ConA lectin attachment; type: binding, Canavalia ensiformis; conditions: 5 μM Ca2+
Procedure: Atomic force microscope (AFM) images (FIG. 4) were obtained using scanning probe microscope (Veeco Nanoscope II) in a tapping mode configuration. Samples were prepared by spin coating of bare or functionalized SWNTs onto a freshly cleaved sheet of mica. The images were taken after 30 min of drying in ambient and subsequent washing with PBS solution (for functionalized SWNTs).
FIG. 4a depicts a small bundle of bare SWNTs with diameter of 3.4 nm. After non covalent functionalization with glycoconjugate “5b” (non covalent molecular structure “SWNT-5b”), SWNT bundles show diameters of 11.7-14.6 nm (FIG. 4b). Con A lectin binding to the functionalized “SWNT-5b” nanostructures (“SWNT-5b-ConA”) increases SWNT diameters to 18.3 nm (FIG. 4c).

PA-IL lectin [5] = molecular target: T1, PA-IL lectin; experiment: SWNT-FET electronic detection of glycoconjugate-lectin interaction (G vs Vg); type: binding; conditions: SWNT-FET functionalized with glycoconjugate; 5 μM lectin, 5 μM Ca2+, PBS pH 7
Procedure: as §3, §4
This step was followed by incubating the chips for 30 minutes in different concentrations of lectin solutions prepared in PBS with 5 μM CaCl2 and latter rinsing with PBS solution.

T1 sequence (Q05097 whole entry): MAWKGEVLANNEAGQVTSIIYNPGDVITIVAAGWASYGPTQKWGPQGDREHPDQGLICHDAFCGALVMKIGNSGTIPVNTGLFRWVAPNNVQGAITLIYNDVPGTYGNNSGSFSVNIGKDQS

5,10,15,20-Tetrakis(4′-{1-[(α-D-mannopyranosyloxy)-3,6-dioxaoct-8-yl]-1,2,3-triazol-4-yl}methyleneoxyphenyl)-Zn-(II)-porphyrin [5b]
change in G vs Vg curve (threshold voltage, conductance) on treating with ConA lectin (ConA lectin [1]): negative shift in threshold voltage and further decrease in conductance | change in G vs Vg curve (threshold voltage, conductance) on treating with PA-IIL lectin (PA-IIL lectin): no significant change | change in G vs Vg curve (threshold voltage, conductance) on treating with PA-IL lectin (PA-IL lectin [2]): no significant change | change in G vs Vg curve (threshold voltage, conductance) on treating with ConA lectin (ConA lectin [3]): positive interaction | binding of Con A lectin to glycoconjugate on the surface of SWNTs (AFM) (ConA lectin [4]): specific binding | SWNT diameter after Con A lectin binding to functionalized SWNT (AFM) (ConA lectin [4]; SWNT-5b-ConA, 11.7-14.6 nm before lectin, bare SWNT bundle 3.4 nm): 18.3 nm

5,10,15,20-Tetrakis(4′-{1-[(β-D-galactopyranosyloxy)-3,6-dioxaoct-8-yl]-1,2,3-triazol-4-yl}methyleneoxyphenyl)-Zn-(II)-porphyrin [5a]
change in G vs Vg curve (threshold voltage, conductance) on treating with PA-IL lectin (PA-IL lectin [5]): selective response | change in G vs Vg curve (threshold voltage, conductance) on treating with ConA lectin (ConA lectin [1]): no significant change | change in G vs Vg curve (threshold voltage, conductance) on treating with PA-IL lectin (PA-IL lectin [2]): negative shift in threshold voltage and further decrease in conductance

C[C@@H]1O[C@@H](OCCOCCOCCn2cc(COc3ccc(-c4c5nc(c(-c6ccc(OCc7cn(CCOCCOCCO[C@@H]8O[C@@H](C)[C@@H](O)[C@@H](O)[C@@H]8O)nn7)cc6)c6ccc([n-]6)c(-c6ccc(OCc7cn(CCOCCOCCO[C@@H]8O[C@@H](C)[C@@H](O)[C@@H](O)[C@@H]8O)nn7)cc6)c6nc(c(-c7ccc(OCc8cn(CCOCCOCCO[C@@H]9O[C@@H](C)[C@@H](O)[C@@H](O)[C@@H]9O)nn8)cc7)c7ccc4[n-]7)C=C6)C=C5)cc3)nn2)[C@@H](O)[C@H](O)[C@@H]1O.[Zn+2] [5c, 5,10,15,20-Tetrakis(4′-{1-[(α-L-fucopyranosyloxy)-3,6-dioxaoct-8-yl]-1,2,3-triazol-4-yl}methyleneoxyphenyl)-Zn-(II)-porphyrin]
change in G vs Vg curve (threshold voltage, conductance) on treating with PA-IIL lectin (PA-IIL lectin): positive interactions
